Consider 4 compounds from paper PMC8287923, “A small-molecule chemical interface for molecular programs” (Nucleic Acids Research, 2021).

Holding throughout (type): biochemical
The target in one experiment is T1, LacI (Escherichia coli, UniProt P03023).
T1 construct: purified LacI with C-terminal His-tag (dimer)
Kind of experiment: purified LacI with O1 operator DNA template (psTLacI); PEN-DNA fluorescent switch dose response ([…]).

For experiment [1], the target named is T2, Tryptophan synthase subunit B (TrpB), EcB (Escherichia coli, UniProt P0A879, M149T/N171D).
T2 construct: purified standalone TrpB variant (EcB)
T2 sequence (P0A879 2-397 M149T/N171D): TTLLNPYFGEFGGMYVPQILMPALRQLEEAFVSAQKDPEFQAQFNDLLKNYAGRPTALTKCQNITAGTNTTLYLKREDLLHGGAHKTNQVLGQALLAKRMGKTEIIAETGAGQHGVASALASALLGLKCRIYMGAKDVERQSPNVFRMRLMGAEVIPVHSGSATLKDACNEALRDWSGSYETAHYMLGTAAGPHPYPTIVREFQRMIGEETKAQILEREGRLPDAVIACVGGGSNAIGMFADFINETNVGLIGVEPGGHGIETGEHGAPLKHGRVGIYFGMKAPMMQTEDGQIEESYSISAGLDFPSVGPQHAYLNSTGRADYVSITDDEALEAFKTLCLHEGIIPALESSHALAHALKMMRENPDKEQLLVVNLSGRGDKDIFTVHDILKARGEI
As to the kind of experiment: HPLC of overnight enzymatic conversion of indole and L-serine to L-trp.

In a further experiment the target is TrpR (Escherichia coli, UniProt P0A881). As to the kind of experiment: purified TrpR with operator DNA template (psTTrpR); PEN-DNA fluorescent switch dose response, Hill fit.

In the case of `CC(C)S[C@@H]1O[C@H](CO)[C@H](O)[C@H](O)[C@H]1O` [IPTG, isopropyl β-d-1-thiogalactopyranoside], the Kd at LacI was about 100 µM.
With `N[C@@H](CO)C(=O)O` [L-serine], in experiment [1], the “HPLC of overnight enzymatic conversion of indole and L-serine to L-trp” value is “Enzymatic activity of EcB L-trp synthesis was confirmed through HPLC evaluation”.
In turn, `N[C@@H](Cc1c[nH]c2ccccc12)C(=O)O` [L-trp] showed a Kd on TrpR of 24 µM.
Turning to `c1ccc2[nH]ccc2c1` [indole], the “HPLC of overnight enzymatic conversion of indole and L-serine to L-trp” value in experiment [1] was “Enzymatic activity of EcB L-trp synthesis was confirmed through HPLC evaluation”.

The Kd is the free concentration of one partner at which half of the binding sites on the other are occupied at equilibrium, for simple one-to-one binding. Low values mean tighter binding, high ones weaker binding.
